Measured values reported in patent publication US10730874B2 (Shire Human Genetic Therapies, Inc., priority 2018, dated 2020).

Target: human activated kallikrein enzyme (plasma kallikrein) (Homo sapiens (Human), UniProt P03952)
Assay: Inhibition of human activated plasma kallikrein, fluorogenic peptide substrate assay, 500 pM enzyme format
Type: biochemical
Conditions: 500 pM activated kallikrein enzyme, 300 uM Pro-Phe-Arg-7-amido-4-methylcoumarin substrate, 30 min preincubation, 10 min at RT; read-out: Primary Dose Response Assay: Average EC50
How it was run: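 Buffer 20 mM Tris pH 7.5, EDTA, NaCl, PEG-400, Triton X-100; 300 uM Pro-Phe-Arg-AMC; enzyme–inhibitor preincubation 30 min RT. Format one: 500 pM kallikrein, 10 min RT reaction; format two: 5 pM kallikrein, 18 h RT reaction. Fluorescence read at 460 nm (380 nm excitation).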

Chain of human activated kallikrein enzyme (plasma kallikrein) (P03952 391-638): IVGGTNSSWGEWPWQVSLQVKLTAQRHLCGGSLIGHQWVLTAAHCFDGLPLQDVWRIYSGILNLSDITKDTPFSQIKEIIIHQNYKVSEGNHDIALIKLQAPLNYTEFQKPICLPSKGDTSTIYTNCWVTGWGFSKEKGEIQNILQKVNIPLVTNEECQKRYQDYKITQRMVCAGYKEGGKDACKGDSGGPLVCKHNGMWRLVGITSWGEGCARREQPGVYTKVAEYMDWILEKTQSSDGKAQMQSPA
Chain of human activated kallikrein enzyme (plasma kallikrein) (P03952 20-390 partner): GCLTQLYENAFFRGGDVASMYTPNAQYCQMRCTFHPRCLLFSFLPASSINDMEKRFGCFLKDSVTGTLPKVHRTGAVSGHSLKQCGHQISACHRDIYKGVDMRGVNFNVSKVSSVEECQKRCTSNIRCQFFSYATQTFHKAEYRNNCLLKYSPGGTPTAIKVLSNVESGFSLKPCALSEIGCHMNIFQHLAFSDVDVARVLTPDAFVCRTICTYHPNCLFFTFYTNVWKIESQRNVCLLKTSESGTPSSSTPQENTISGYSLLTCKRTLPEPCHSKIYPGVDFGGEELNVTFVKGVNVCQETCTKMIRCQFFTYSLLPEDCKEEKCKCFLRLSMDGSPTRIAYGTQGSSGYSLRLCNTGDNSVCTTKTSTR

Row | EC50 [nM] | Structure (SMILES)
1 | 10 to 100 | O=C(NCc1ncn2ccc(Cl)c(F)c12)c1cn(Cc2cn3ncccc3n2)cn1 [Example I-291, N-((7-chloro-8-fluoroimidazo[1,5-a]pyridin-1-yl)methyl)-1-(imidazo[1,2-b]pyridazin-2-ylmethyl)-1H-imidazole-4-carboxamide]
2 | < 1 | CC(C)(Cc1cc(C2CC2)cn2cc(Cn3cc(C(=O)NCc4ncn5ccc(Cl)cc45)nn3)nc12)C(=O)O [Example I-170, 3-(2-((4-(((7-chloroimidazo[1,5-a]pyridin-1-yl)methyl)carbamoyl)-1H-1,2,3-triazol-1-yl)methyl)-6-cyclopropylimidazo[1,2-a]pyridin-8-yl)-2,2-dimethylpropanoic acid]
3 | 100 to 2000 | O=C(NCc1ncn2ccc(Cl)c(F)c12)c1cn(Cc2cc3ccc(C4CC4)cc3[nH]2)nn1 [Example I-235, N-((7-chloro-8-fluoroimidazo[1,5-a]pyridin-1-yl)methyl)-1-((6-cyclopropyl-1H-indol-2-yl)methyl)-1H-1,2,3-triazole-4-carboxamide]
4 | 10 to 100 | O=C(NCc1ncn2ccc(Cl)c(F)c12)c1cn(Cc2cn3nccc(CC4COC4)c3n2)nn1 [Example I-296, N-((7-chloro-8-fluoroimidazo[1,5-a]pyridin-1-yl)methyl)-1-((8-(oxetan-3-ylmethyl)imidazo[1,2-b]pyridazin-2-yl)methyl)-1H-1,2,3-triazole-4-carboxamide]
5 | 100 to 2000 | CC(NC(=O)c1cn(C(C)c2cn3cc(C4CC4)ccc3n2)nn1)c1ncn2ccc(Cl)c(F)c12 (stereo not shown) [Example I-278, N-(1-(7-chloro-8-fluoroimidazo[1,5-a]pyridin-1-yl)ethyl)-1-(1-(6-cyclopropylimidazo[1,2-a]pyridin-2-yl)ethyl)-1H-1,2,3-triazole-4-carboxamide]
6 | < 1 | O=C(NCc1ncn2ccc(Cl)c(F)c12)c1cc(C(=O)O)n(Cc2cn3cc(C4CC4)ccc3n2)c1 [Example I-270b, 4-(((7-chloro-8-fluoroimidazo[1,5-a]pyridin-1-yl)methyl)carbamoyl)-1-((6-cyclopropylimidazo[1,2-a]pyridin-2-yl)methyl)-1H-pyrrole-2-carboxylic acid]
7 | < 1 | CC(C)(O)CCc1cc(C2CC2)cn2cc(Cn3cc(C(=O)NCc4ncn5ccc(Cl)cc45)cn3)nc12 [Example I-119, N-((7-chloroimidazo[1,5-a]pyridin-1-yl)methyl)-1-((6-cyclopropyl-8-(3-hydroxy-3-methylbutyl)imidazo[1,2-a]pyridin-2-yl)methyl)-1H-pyrazole-4-carboxamide]
8 | 100 to 2000 | O=C(NCc1ncn2ccc(Cl)cc12)c1cnn(Cc2cn3c(CO)cccc3n2)c1 [Example I-62, N-((7-chloroimidazo[1,5-a]pyridin-1-yl)methyl)-1-((5-(hydroxymethyl)imidazo[1,2-a]pyridin-2-yl)methyl)-1H-pyrazole-4-carboxamide]
9 | 10 to 100 | O=C(NCc1ncn2ccc(Cl)c(F)c12)c1cnn(Cc2cn3ncccc3n2)c1 [Example I-285, N-((7-chloro-8-fluoroimidazo[1,5-a]pyridin-1-yl)methyl)-1-(imidazo[1,2-b]pyridazin-2-ylmethyl)-1H-pyrazole-4-carboxamide]
10 | < 1 | C#Cc1ccn2cnc(CNC(=O)c3cnn(Cc4cn5nc(C6CC6)ccc5n4)c3)c2c1 [Example I-98, 1-((6-cyclopropylimidazo[1,2-b]pyridazin-2-yl)methyl)-N-((7-ethynylimidazo[1,5-a]pyridin-1-yl)methyl)-1H-pyrazole-4-carboxamide]
11 | < 1 | O=C(NCc1ncn2ccc(Cl)c(F)c12)c1cn(Cc2cn3cc(C4CC4)cc(N4CCOC(C(=O)O)C4)c3n2)nn1 (stereo not shown) [Example I-264, 4-(2-((4-(((7-chloro-8-fluoroimidazo[1,5-a]pyridin-1-yl)methyl)carbamoyl)-1H-1,2,3-triazol-1-yl)methyl)-6-cyclopropylimidazo[1,2-a]pyridin-8-yl)morpholine-2-carboxylic acid]
12 | < 1 | O=C(NCc1ncn2ccc(Cl)c(F)c12)c1cn(Cc2cn3cc(C4CC4)cc(Br)c3n2)nn1 [Example I-204, 1-((8-bromo-6-cyclopropylimidazo[1,2-a]pyridin-2-yl)methyl)-N-((7-chloro-8-fluoroimidazo[1,5-a]pyridin-1-yl)methyl)-1H-1,2,3-triazole-4-carboxamide]
13 | < 1 | O=C(NCc1ncn2ccc(Cl)cc12)c1cn(Cc2cn3cc(C4CC4)ccc3n2)nc1C1COC1 [Example I-102, N-((7-chloroimidazo[1,5-a]pyridin-1-yl)methyl)-1-((6-cyclopropylimidazo[1,2-a]pyridin-2-yl)methyl)-3-(oxetan-3-yl)-1H-pyrazole-4-carboxamide]
14 | < 1 | O=C(NCc1ncn2ccc(Cl)cc12)c1cnn(Cc2cn3cc(C4CC4)cc(CO)c3n2)c1 [Example I-75, N-((7-chloroimidazo[1,5-a]pyridin-1-yl)methyl)-1-((6-cyclopropyl-8-(hydroxymethyl)imidazo[1,2-a]pyridin-2-yl)methyl)-1H-pyrazole-4-carboxamide]
15 | < 1 | O=C(O)c1cn(-c2cc(C3CC3)cn3cc(Cn4cc(C(=O)NCc5ncn6ccc(Cl)c(F)c56)nn4)nc23)cn1 [Example I-226, 1-(2-((4-((7-chloro-8-fluoroimidazo[1,5-a]pyridin-1-yl)methylcarbamoyl)-1H-1,2,3-triazol-1-yl)methyl)-6-cyclopropylimidazo[1,2-a]pyridin-8-yl)-1H-imidazole-4-carboxylic acid]
16 | < 1 | O=C(NCc1ncn2ccc(Br)c(F)c12)c1nnc(Cc2cn3cc(C4CC4)ccc3n2)o1 [Example I-136, N-((7-bromo-8-fluoroimidazo[1,5-a]pyridin-1-yl)methyl)-5-((6-cyclopropylimidazo[1,2-a]pyridin-2-yl)methyl)-1,3,4-oxadiazole-2-carboxamide]
17 | 1 to 10 | Nc1c(C2CC2)ccc2nc(Cn3cc(C(=O)NCc4ncn5ccc(Cl)cc45)cn3)cn12 [Example I-88, 1-((5-amino-6-cyclopropylimidazo[1,2-a]pyridin-2-yl)methyl)-N-((7-chloroimidazo[1,5-a]pyridin-1-yl)methyl)-1H-pyrazole-4-carboxamide]
18 | < 1 | CC(C)c1ccc2nc(Cn3cc(C(=O)NCc4ncn5ccc(Cl)cc45)cn3)cn2c1 [Example I-8, N-((7-chloroimidazo[1,5-a]pyridin-1-yl)methyl)-1-((6-isopropylimidazo[1,2-a]pyridin-2-yl)methyl)-1H-pyrazole-4-carboxamide]
19 | 1 to 10 | O=C(O)c1ccc(-n2c(Cn3cc(C(=O)NCc4ncn5ccc(Cl)c(F)c45)nn3)cc3cc(C4CC4)ccc32)cc1 [Example I-259, 4-(2-((4-(((7-chloro-8-fluoroimidazo[1,5-a]pyridin-1-yl)methyl)carbamoyl)-1H-1,2,3-triazol-1-yl)methyl)-5-cyclopropyl-1H-indol-1-yl)benzoic acid]
20 | 10 to 100 | COCc1c(C(=O)NCc2ncn3ccc(Cl)cc23)cnn1Cc1cn2cc(C3CC3)ccc2n1 [Example I-32, N-((7-chloroimidazo[1,5-a]pyridin-1-yl)methyl)-1-((6-cyclopropylimidazo[1,2-a]pyridin-2-yl)methyl)-5-(methoxymethyl)-1H-pyrazole-4-carboxamide]
21 | 1 to 10 | Cc1cc2nc(Cn3cc(C(=O)NCc4ncn5ccc(Cl)cc45)cn3)cn2cc1C1CC1 [Example I-16, N-((7-chloroimidazo[1,5-a]pyridin-1-yl)methyl)-1-((6-cyclopropyl-7-methylimidazo[1,2-a]pyridin-2-yl)methyl)-1H-pyrazole-4-carboxamide]

Row | Structure (SMILES) | EC50 [nM]
22 | O=C(NCc1ncn2ccc(Cl)cc12)c1cn(Cc2cn3cc(C4CC4)ccc3n2)nc1C1CC1 [Example I-78, N-((7-chloroimidazo[1,5-a]pyridin-1-yl)methyl)-3-cyclopropyl-1-((6-cyclopropylimidazo[1,2-a]pyridin-2-yl)methyl)-1H-pyrazole-4-carboxamide] | < 1
23 | CCOC(=O)c1cc(C2CC2)cn2cc(Cn3cc(C(=O)NCc4ncn5ccc(Cl)cc45)cn3)nc12 [Example I-71, ethyl 2-((4-(((7-chloroimidazo[1,5-a]pyridin-1-yl)methyl)carbamoyl)-1H-pyrazol-1-yl)methyl)-6-cyclopropylimidazo[1,2-a]pyridine-8-carboxylate] | < 1
24 | CCOC(=O)c1nc(C(=O)NCc2ncn3ccc(Cl)c(F)c23)cn1Cc1cn2cc(C3CC3)ccc2n1 [Example I-260] | < 1
25 | O=C(NCc1ncn2ccc(Cl)cc12)c1cn(Cc2cn3cc(C4CC4)ccc3n2)nc1C(F)F [Example I-99, N-((7-chloroimidazo[1,5-a]pyridin-1-yl)methyl)-1-((6-cyclopropylimidazo[1,2-a]pyridin-2-yl)methyl)-3-(difluoromethyl)-1H-pyrazole-4-carboxamide] | < 1
26 | O=C(NCc1ncn2ccc(Cl)cc12)c1cnn(Cc2cn3c(Cl)c(Br)ccc3n2)c1 [Example I-39, 1-((6-bromo-5-chloroimidazo[1,2-a]pyridin-2-yl)methyl)-N-((7-chloroimidazo[1,5-a]pyridin-1-yl)methyl)-1H-pyrazole-4-carboxamide] | 1 to 10
27 | O=C(NCc1ncn2ccc(Cl)cc12)c1cnn(Cc2cn3cc(C4CC4)cc(CCCO)c3n2)c1 [Example I-107, N-((7-chloroimidazo[1,5-a]pyridin-1-yl)methyl)-1-((6-cyclopropyl-8-(3-hydroxypropyl)imidazo[1,2-a]pyridin-2-yl)methyl)-1H-pyrazole-4-carboxamide] | < 1

Same assay, conditions: comparative compounds (Table II); assay format with 500 pM (500 μM in the source) activated kallikrein; read-out: Primary Dose Response Assay: Average EC50

Row | EC50 [nM] | Structure (SMILES)
28 | 100 to 2000 | O=C(NCc1ncn2ccc(C3CC3)cc12)c1cnn(Cc2cn3cc(C4CC4)ccc3n2)c1 [drawing 403, reference compound]
